Data from patent US20240246918A1, “COMPOUNDS AND COMPOSITIONS AS EIF4E INHIBITORS AND THE USES THEREOF” (Ribometrix, Inc., priority 2022, published 2024).
Like-named read-outs stand apart in the source and are kept apart here.

Key:
[1] = test system: cap-dependent translation in Flp-In-293 reporter cells; test: Cellular cap-dependent translation inhibition assay (dual luciferase assay, DLA; Fluc/Rluc ratio, 24 hours); assay type: cell-based
human eIF4E protein = molecular target: T1, human eIF4E protein (Homo sapiens, UniProt P06730); test: Biochemical competitive binding assay (TR-FRET competition, EDA-m7GDP-ATTO-647N probe); settings: read-out: hEIF4E TR-FRET IC50
T1 construct: purchased Novus NBP-45314
Method in brief: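 IC50 values come from 4-parameter fits of the normalized 665/620 nm TR-FRET ratio. Compound was first incubated 15 min with 4 nM recombinant His-eIF4E bound to 2.5 nM Eu-anti-His antibody, then 15 min with 5 nM m7GDP-ATTO-647N tracer, in pH 7.5 HEPES buffer with 100 mM KCl, Tween-20 and BSA.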

[2] = test system: COLO 205 colorectal tumor cells; test: Tumor cell viability inhibition assay (CellTiter-Glo 2.0, 72 hours); assay type: cell-based; settings: COLO 205 cell viability
Method in brief: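 IC50 derived by 4-parameter fitting after normalizing luminescence to DMSO and max-inhibition wells. Compounds tested as 11 concentrations in 4-fold steps on COLO 205 cells seeded at 1500 per well in RPMI-1640/10% FBS; ATP content measured with CellTiter-Glo 2.0 after 72 h.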

[3] = Homo sapiens, Flp-In-293, 24 h, dual luciferase assay, Flp-In-293 reporter cells, 24 hours, Fluc/Rluc ratio, read-out: DLA 205 IC50
[4] = dual luciferase assay, Flp-In-293 reporter cells, 24 hours, Fluc/Rluc ratio, read-out: DLA 205 IC50

T1 sequence (P06730 whole entry): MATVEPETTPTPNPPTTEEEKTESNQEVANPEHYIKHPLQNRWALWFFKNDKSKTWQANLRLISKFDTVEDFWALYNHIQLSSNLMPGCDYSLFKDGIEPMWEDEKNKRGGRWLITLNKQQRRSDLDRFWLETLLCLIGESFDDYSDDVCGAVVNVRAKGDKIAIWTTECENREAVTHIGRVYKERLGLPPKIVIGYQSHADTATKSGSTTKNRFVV

Row | SMILES | IC50 (human eIF4E protein) | IC50 ([2]; Homo sapiens, COLO 205, 72 h) | IC50 [2] | IC50 [1, 3] | IC50 [1, 4] | IC50 ([1]; Homo sapiens, Flp-In-293, 24 h, read-out: DLA 205 IC50, dual luciferase assay, Flp-In-293 reporter cells, 24 hours, Fluc/Rluc ratio) | IC50 ([2]; Homo sapiens) | IC50 ([1]; read-out: DLA 205 IC50, dual luciferase assay, Flp-In-293 reporter cells, 24 hours, Fluc/Rluc ratio)
1 | Cc1cc(-c2cc(Cl)ccc2OCCn2c(C)nc3c(c2=O)CC(N(C)C(=O)C2CN(CC(F)(F)F)C2)CC3)c2scc(C(=O)O)c2n1 (stereo not drawn) [Compound 72] | < 100 nM | > 20000 nM |  | > 5000 nM |  |  |  | 
2 | Cc1cc(-c2cc(Cl)ccc2OCCn2c(C)nc3c(c2=O)CC(N(C)C2CCCCC2)CC3)c2scc(C(=O)O)c2n1 (stereo not drawn) [Compound 69] | < 100 nM | < 5000 nM |  | < 1000 nM |  |  |  | 
3 | Cc1cc(-c2cc(Cl)ccc2OCCn2c(C)nc3c(c2=O)CC(N(C)C2CCCC2(F)F)CC3)c2scc(C(=O)O)c2n1 (single isomer, unassigned) [Compound 301] | < 100 nM |  | 5000 to 20000 nM |  | < 1000 nM |  |  | 
4 | Cc1cc(-c2cc(Cl)ccc2OCCn2c(C)nc3c(c2=O)CC(N(C)C2CC2)CC3)c2sccc2n1 (single isomer, unassigned) [Compound 306] | 500 to 5000 nM | 5000 to 20000 nM |  |  | > 5000 nM |  |  | 
5 | Cc1nc2c(c(=O)n1CC#Cc1ccc(Cl)cc1-c1ccnc3c(C(=O)O)csc13)C[C@@H](N1CC[C@@H](F)C1)CC2 (single isomer, unassigned) [Compound 327] | < 100 nM | < 5000 nM |  | < 1000 nM |  |  |  | 
6 | Cc1nc2c(c(=O)n1CC#Cc1ccc(Cl)cc1-c1ccnc3c(C(=O)O)csc13)CC(N(C)C)CC2 (single isomer, unassigned) [Compound 297] | 500 to 5000 nM |  | > 20000 nM |  | > 5000 nM |  |  | 
7 | Cc1cc(-c2cc(Cl)ccc2OCCn2c(C)nc3c(c2=O)CC(N(C2CCC2)C2CC2)CC3)c2scc(C(=O)O)c2n1 (stereo not drawn) [Compound 97] | < 100 nM | < 5000 nM |  | < 1000 nM |  |  |  | 
8 | Cc1cc(-c2cc(Cl)ccc2OCCn2c(C)nc3c(c2=O)CC(N(C)c2ccncc2)CC3)c2scc(C(=O)O)c2n1 (stereo not drawn) [Compound 47, 7-[5-chloranyl-2-[2-[2-methyl-6-[methyl(4-pyridyl)amino]-4-oxidanylidene-5,6,7,8-tetrahydroquinazolin-3-yl]ethoxy]phenyl]-5-methyl-thieno[3,2-b]pyridine-3-carboxylic acid; 2,2,2-tris(fluorenyl)acetic acid] | < 100 nM | > 20000 nM |  | > 5000 nM |  |  |  | 
9 | Cc1cc(-c2cc(Cl)ccc2OCCn2c(C)nc3c(c2=O)CC(N2CC(F)C2)CC3)c2scc(C(=O)NS(C)(=O)=O)c2n1 (single isomer, unassigned) [Compound 342] | < 100 nM | < 5000 nM |  | < 1000 nM |  |  |  | 
10 | Cc1cc(-c2cc(Cl)ccc2OCCn2c(C)nc3c(c2=O)CC(N2CCCC2)CC3)c2scc(C(=O)O)c2n1 (stereo not drawn) [Compound 4] | < 100 nM |  |  |  |  | < 1000 nM | 5000 to 20000 nM | 
11 | Cc1cc(-c2cc(Cl)ccc2OCCn2c(C)nc3c(c2=O)CC(N2CCC4(COC4)C2)CC3)c2scc(C(=O)O)c2n1 (stereo not drawn) [Compound 26] | < 100 nM | < 5000 nM |  | < 1000 nM |  |  |  | 
12 | Cc1cc(-c2cc(Cl)ccc2OCCn2c(C)nc3c(c2=O)CC(N2CCCC(F)(F)C2)CC3)c2scc(C(=O)O)c2n1 (stereo not drawn) [Compound 50] | < 100 nM | < 5000 nM |  | < 1000 nM |  |  |  | 
13 | Cc1nc2c(c(=O)n1CC#Cc1ccc(Cl)cc1-c1ccnc3c(C(=O)O)csc13)CC(N1CCCCC1)CC2 (single isomer, unassigned) [Compound 298] | < 100 nM | < 5000 nM |  | < 1000 nM |  |  |  | 
14 | Cc1nc2c(c(=O)n1CCOc1ccc(Cl)cc1-c1cccc(C(=O)O)c1)CC(N(C)C)CC2 (single isomer, unassigned) [Compound 25] | 100 to 500 nM |  | > 20000 nM |  | 1000 to 5000 nM |  |  | 
15 | Cc1cc(-c2cc(Cl)ccc2OCCn2c(C)nc3c(c2=O)CC(OC2CCN(C)CC2)CC3)c2scc(C(=O)O)c2n1 (stereo not drawn) [Compound 92] | 100 to 500 nM | > 20000 nM |  | > 5000 nM |  |  |  | 
16 | Cc1nc2c(c(=O)n1CC#Cc1ccc(Cl)cc1-c1ccnc3c(C(=O)O)csc13)CC(N1CCCCC1)CC2 (single isomer, unassigned) [Compound 299] | < 100 nM |  | 5000 to 20000 nM |  | 1000 to 5000 nM |  |  | 
17 | Cc1cc(-c2cc(Cl)ccc2OCCn2c(C)nc3c(c2=O)CC(N(C)C24CC(C)(C2)C4(F)F)CC3)c2scc(C(=O)O)c2n1 (stereo not drawn) [Compound 318] | < 100 nM | 5000 to 20000 nM |  | 1000 to 5000 nM |  |  |  | 
18 | Cc1cc(-c2cc(Cl)ccc2OCCn2c(C)nc3c(c2=O)CC(N(C)C2CC2)CC3)c2scc(C(=O)NS(=O)(=O)c3ccncc3)c2n1 (single isomer, unassigned) [Compound 284] | < 100 nM | 5000 to 20000 nM |  | 1000 to 5000 nM |  |  |  | 
19 | COC1CCc2nc(C)n(CCOc3ccc(Cl)cc3-c3cc(C)nc4c(C(=O)O)csc34)c(=O)c2C1 (single isomer, unassigned) [Compound 6] | 100 to 500 nM |  |  |  |  |  | 5000 to 20000 nM | 1000 to 5000 nM
20 | CO[C@H]1CCN([C@H]2CCc3nc(C)n(CCOc4ccc(Cl)cc4-c4cc(C)nc5c(C(=O)O)csc45)c(=O)c3C2)C1 (single isomer, unassigned) [Compound 44] | < 100 nM | < 5000 nM |  | < 1000 nM |  |  |  | 
21 | COC(=O)c1csc2c(-c3cc(Cl)ccc3OCCn3c(C)nc4c(c3=O)CC(N(C)C3CC3)CC4)cc(C)nc12 (stereo not drawn) [Compound 358] | 500 to 5000 nM | 5000 to 20000 nM |  | 1000 to 5000 nM |  |  |  | 
22 | Cc1nc2c(c(=O)n1CC#Cc1ccc(Cl)cc1-c1ccnc3c(C(=O)NS(C)(=O)=O)csc13)CC(N(C)C)CC2 (single isomer, unassigned) [Compound 266] | 500 to 5000 nM | > 20000 nM |  | > 5000 nM |  |  |  | 
23 | Cc1cc(-c2cc(Cl)ccc2OCCn2c(C)nc3c(c2=O)CC(N(C2CC2)C2CC2)CC3)c2scc(C(=O)NS(C)(=O)=O)c2n1 (single isomer, unassigned) [Compound 292] | < 100 nM |  | 5000 to 20000 nM |  | 1000 to 5000 nM |  |  | 
24 | Cc1nc2c(c(=O)n1CC#Cc1ccc(Cl)cc1-c1ccnc3c(C(=O)NS(C)(=O)=O)csc13)CC(N(C)C)CC2 (single isomer, unassigned) [Compound 273] | 500 to 5000 nM |  | > 20000 nM |  | > 5000 nM |  |  | 

Continued, in another order:

Row | IC50 (human eIF4E protein) | IC50 ([2]; Homo sapiens, COLO 205, 72 h) | IC50 [2] | SMILES | IC50 [1, 3] | IC50 [1, 4] | IC50 ([1]; Homo sapiens, Flp-In-293, 24 h, read-out: DLA 205 IC50, dual luciferase assay, Flp-In-293 reporter cells, 24 hours, Fluc/Rluc ratio) | IC50 ([2]; Homo sapiens) | IC50 ([1]; read-out: DLA 205 IC50, dual luciferase assay, Flp-In-293 reporter cells, 24 hours, Fluc/Rluc ratio)
25 | < 100 nM | < 5000 nM |  | Cc1cc(-c2cc(Cl)ccc2OCCn2c(C)nc3c(c2=O)CC(N2CCCC(F)(F)C2)CC3)c2scc(C(=O)NS(C)(=O)=O)c2n1 (stereo not drawn) [Compound 81] | < 1000 nM |  |  |  | 
26 | < 100 nM |  | < 5000 nM | Cc1cc(-c2cc(Cl)ccc2OCCn2c(C)nc3c(c2=O)CC(N2CC(F)C2)CC3)c2scc(C(=O)NS(C)(=O)=O)c2n1 (single isomer, unassigned) [Compound 343] |  | < 1000 nM |  |  | 
27 | < 100 nM | < 5000 nM |  | Cc1cc(-c2cc(Cl)ccc2OCCn2c(C)nc3c(c2=O)CC(N(C2CC2)C2CC2)CC3)c2scc(C(=O)O)c2n1 (stereo not drawn) [Compound 352] | < 1000 nM |  |  |  | 
28 | < 100 nM | < 5000 nM |  | Cc1nc2c(c(=O)n1CC#Cc1ccc(Cl)cc1-c1ccnc3c(C(=O)NS(C)(=O)=O)csc13)CC(N1CC(F)C1)CC2 (stereo not drawn) [Compound 325] | < 1000 nM |  |  |  | 
29 | < 100 nM | < 5000 nM |  | Cc1cc(-c2cc(Cl)ccc2OCCn2c(C)nc3c(c2=O)CC(N2CCC(F)(F)C2)CC3)c2scc(C(=O)NS(C)(=O)=O)c2n1 (stereo not drawn) [Compound 60] | < 1000 nM |  |  |  | 
30 | < 100 nM | 5000 to 20000 nM |  | Cc1cc(-c2cc(Cl)ccc2OCCn2c(C)nc3c(c2=O)CC(N2CC(F)(F)C2)CC3)c2scc(C(=O)NS(C)(=O)=O)c2n1 (stereo not drawn) [Compound 56] | 1000 to 5000 nM |  |  |  | 
31 | < 100 nM | < 5000 nM |  | CO[C@@H]1CCN([C@H]2CCc3nc(C)n(CCOc4ccc(Cl)cc4-c4cc(C)nc5c(C(=O)O)csc45)c(=O)c3C2)C1 (single isomer, unassigned) [Compound 43] | < 1000 nM |  |  |  | 
32 | 100 to 500 nM |  | > 20000 nM | Cc1sc2c(-c3cc(Cl)ccc3OCCn3c(C)nc4c(c3=O)CC(N(C)CC3CC(F)(F)C3)CC4)cn(C)c(=O)c2c1C(=O)O (single isomer, unassigned) [Compound 253] |  | > 5000 nM |  |  | 
33 | < 100 nM | < 5000 nM |  | COC1CN(C2CCc3nc(C)n(CCOc4ccc(Cl)cc4-c4cc(C)nc5c(C(=O)O)csc45)c(=O)c3C2)C1 (stereo not drawn) [Compound 28] | < 1000 nM |  |  |  | 
34 | < 100 nM | < 5000 nM |  | Cc1cc(-c2cc(Cl)ccc2OCCn2c(C)nc3c(c2=O)CC(N(C2CC2)C2CC2)CC3)c2scc(C(=O)NS(C)(=O)=O)c2n1 (single isomer, unassigned) [Compound 291] | < 1000 nM |  |  |  | 
35 | < 100 nM |  | 5000 to 20000 nM | Cc1cc(-c2cc(Cl)ccc2OCCn2c(C)nc3c(c2=O)CC(N(C)CC2(C)COC2)CC3)c2scc(C(=O)O)c2n1 (single isomer, unassigned) [Compound 345] |  | < 1000 nM |  |  | 
36 | < 100 nM | < 5000 nM |  | Cc1cc(-c2cc(Cl)ccc2OCCn2c(C)nc3c(c2=O)C[C@H](N2CC[C@@H](F)C2)CC3)c2scc(C(=O)NS(C)(=O)=O)c2n1 (single isomer, unassigned) [Compound 313] | < 1000 nM |  |  |  | 
37 | < 100 nM | < 5000 nM |  | Cc1cc(-c2cc(Cl)ccc2OCCn2c(C)nc3c(c2=O)CC(N(C)Cc2ccncc2F)CC3)c2scc(C(=O)O)c2n1 (stereo not drawn) [Compound 57] | < 1000 nM |  |  |  | 
